These compounds were tested against T1, MAGL protein (Homo sapiens, UniProt Q99685) (assay: 2-AG assay: MAGL inhibitory activity by hydrolysis of 2-arachidonoylglycerol to arachidonic acid, followed by mass spectrometry). Conditions: 8 μM 2-arachidonoylglycerol, 15 min preincubation, 30 min reaction at RT, RapidFire MS readout.
T1 sequence (Q99685 1-303): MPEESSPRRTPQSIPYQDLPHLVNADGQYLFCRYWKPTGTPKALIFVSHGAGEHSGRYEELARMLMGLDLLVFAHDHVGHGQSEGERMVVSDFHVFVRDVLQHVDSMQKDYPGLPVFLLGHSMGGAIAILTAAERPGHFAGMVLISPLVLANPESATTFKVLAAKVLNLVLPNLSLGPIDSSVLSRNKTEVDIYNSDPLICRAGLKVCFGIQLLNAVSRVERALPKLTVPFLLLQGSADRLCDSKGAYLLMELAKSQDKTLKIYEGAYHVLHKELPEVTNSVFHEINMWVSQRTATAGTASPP
Assay type: biochemical
In short: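 Activity was measured by RapidFire SPE–triple-quad MS as the ratio of arachidonic acid to d8-arachidonic acid after 2-AG hydrolysis (8 μM substrate, 30 min, RT, acetonitrile quench). Compounds, tested from 12.5 μM down to […], were first preincubated 15 min with MAGL in TRIS/EDTA/Tween-20 buffer containing 2.5% DMSO.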

SMILES	IC50
O=C(N1CC2(CC(c3nc(C4CC4)n[nH]3)C2)C1)N1CC2(CC(n3cnc(O)n3)C2)C1 [Example 648, [6-(3-cyclopropyl-1H-1,2,4-triazol-5-yl)-2-azaspiro[3.3]heptan-2-yl]-[6-(3-hydroxy-1,2,4-triazol-1-yl)-2-azaspiro[3.3]heptan-2-yl]methanone]	1500 nM
N#Cc1cc(C(F)(F)F)ccc1CC1CC2(C1)CN(C(=O)N1CC3(CC(c4nnc(C5(O)CC5)[nH]4)C3)C1)C2 [compound 477]	0.08 nM
O=C(N1CC2(CC(c3nnc(C4CC4)[nH]3)C2)C1)N1CC2(CN(Cc3ncc(F)cc3F)C2)C1 [compound 165]	30.9 nM
CS(=O)(=O)c1cc(C(F)(F)F)ccc1COC1CCN(C(=O)N2CC3(CC(c4nc(C5CC5)n[nH]4)C3)C2)CC1 [Example 907, [6-(3-cyclopropyl-1H-1,2,4-triazol-5-yl)-2-azaspiro[3.3]heptan-2-yl]-[4-[2-mesyl-4-(trifluoromethyl)benzyl]oxypiperidino]methanone]	43.1 nM
N=S(=O)(c1ccc(C2CN(C(=O)N3CC4(CC(c5nc(C6(F)CC6)n[nH]5)C4)C3)C2)cc1)C(F)(F)F (stereo not shown) [compound 564]	0.86 nM
CC(C)c1cc(C(C)C)n(-c2ccc(C3CN(C(=O)N4CC5(CC(c6nc(C7(O)CC7)n[nH]6)C5)C4)C3)cc2)n1 [compound 751]	0.66 nM
Cn1nc(C(F)(F)F)cc1CN1CCC2(CC1)CN(C(=O)N1CC3(CC(c4nc(C5CC5)n[nH]4)C3)C1)C2 [compound 539]	9.25 nM
N=S(=O)(c1ccc(CC2CC3(C2)CN(C(=O)N2CC4(CC(c5nc(C6CC6)n[nH]5)C4)C2)C3)cc1)C(F)(F)F (stereo not shown) [compound 2]	0.19 nM
O=C(N1CC(NCc2cc(Cl)cc(C(F)(F)F)c2)C1)N1CC2(CC(c3nnc(C4CC4)[nH]3)C2)C1 [compound 194]	18.4 nM
O=C(N1CC2(CC(c3nc(C4CC4)n[nH]3)C2)C1)N1CC2(CN(Cc3ncoc3C(F)(F)F)C2)C1 [compound 701]	64.4 nM
O=C(N1CC2(CC(CNC3(C(F)(F)F)CC3)C2)C1)N1CC2(CC(c3ncn[nH]3)C2)C1 [compound 983]	2180 nM
O=C(N1CC2(CC(Cc3ccc(C(F)(F)F)cn3)C2)C1)N1CC2(CC(c3nc(C4(F)CC4)n[nH]3)C2)C1 [compound 517]	0.15 nM
O=C(N1CC2(CC(NS(=O)(=O)c3ccc(C(F)(F)F)cc3)C2)C1)N1CC2(CC(c3nnc(C4CC4)[nH]3)C2)C1 [compound 223]	0.33 nM
O=C(N1CC2(CC(Cc3ccc(S(=O)(=O)C(F)(F)F)cn3)C2)C1)N1CC2(CC(c3nc(C4(F)CC4)n[nH]3)C2)C1 [compound 652]	0.19 nM
O=C(N1CC(NS(=O)(=O)c2ccc(C(F)(F)F)cc2F)C1)N1CC2(CC(c3nnc(C4CC4)[nH]3)C2)C1 [compound 203]	363 nM
O=C(N1CC2(CC(Cn3nccc3C(F)(F)F)C2)C1)N1CC2(CC(c3nc(C4COC4)n[nH]3)C2)C1 [compound 716]	29.2 nM
CCn1nc(C(F)(F)F)cc1CN1CC2(C1)CN(C(=O)N1CC3(CC(c4nc(C5CC5)n[nH]4)C3)C1)C2 [compound 553]	4.55 nM
O=C(N1CC(C23CC(c4nnc(C5(C(F)(F)F)CC5)s4)(C2)C3)C1)N1CC2(CC(c3nc(C4(O)CC4)n[nH]3)C2)C1 [compound 447]	101 nM
O=C(N1CC(c2ccc(Oc3ccccc3Cl)nn2)C1)N1CC2(CC(c3nnc(C4CC4)[nH]3)C2)C1 [compound 378]	16.6 nM
O=C(N1CC(c2ccc(OCC3(C(F)(F)F)CC3)cc2)C1)N1CC2(CC(c3nnc(C4(O)CC4)[nH]3)C2)C1 [compound 375]	1.89 nM
O=C(N1CC(C23CC(c4nnc(C5CC5)o4)(C2)C3)C1)N1CC2(CC(c3nnc(C4CC4)[nH]3)C2)C1 [compound 345]	9.15 nM
CS(=O)(=O)c1ccc(COC2CCN(C(=O)N3CC4(CC(c5n[nH]c(C6CC6)n5)C4)C3)CC2)c(Cl)c1 [Example 925, [4-(2-chloro-4-mesyl-benzyl)oxypiperidino]-[6-(5-cyclopropyl-1H-1,2,4-triazol-3-yl)-2-azaspiro[3.3]heptan-2-yl]methanone]	79.2 nM
